Measurements reported in US20200407398A1, “Short Proline-Rich Lipopeptide Potentiates Minocycline and Rifampicin Against Multidrug-and Extensively Drug-Resistant Pseudomonas Aeruginosa” (priority 2018, published 2020).
Peptide text beside a SMILES is read from it. * marks the point of attachment. Acetyl(1-adamantyl) = O=C(CC12CC3CC(CC(C3)C1)C2)*; Octanoyl = CCCCCCCC(=O)*

Legend:
Assay type in all cases: cell-based
[1] = system: pig erythrocytes; settings: red cells of porcine
Experimental: Since PRAMPs are able to kill bacteria through membrane lysis, it is imperative to evaluate whether these synthesized SPRLPs also lyse eukaryotic membranes. The ability to lyse porcine red blood cells was assessed and the minimum concentration to result in 5% erythrocyte hemolysis (MHC) was reported (Tables 2 & 3). […] This greatly limits their therapeutic potential. […] However, all other SPRLPs were non-hemolytic (MHC>512 μg/mL).
The ability of SPRLPs to lyse eukaryotic red blood cells were quantified by the amount of hemoglobin released upon incubation with pig erythrocytes, following published protocols (37, 39). Fresh pig blood drawn from pig antecubital vein was centrifuged at 1000×g for 5 minutes at 4° C., washed with PBS three times and re-suspended in the same buffer, consecutively. Then, agents of interest were 2-fold serially diluted in PBS on 96-well plate and mixed with equal volumes of erythrocyte solution. Post 1-hour incubation at 37° C., intact cells were pelleted by centrifugation at 1000×g for 5 minutes at 4° C. The supernatant was then transferred to a new 96-well plate. The hemoglobin released was measured via EMax Plus microplate reader (Molecular Devices, USA) at 570 nm wavelength. Erythrocytes in PBS with or without 0.1% Triton X-100 was used as negative or positive control, respectively.

[2] = system: E. coli CAN-ICU 63074 (amikacin-intermediate resistant)
Experimental: (§1) The synthesized SPRLPs were evaluated for their antibacterial potency against a panel of Gram-positive and Gram-negative bacteria (Tables 2 & 3). Some of the included pathogens were collected from patients visiting or admitted to participating Canadian hospitals through the CAN-ICU (27) and CANWARD (28) national surveillance studies. Antibacterial activity was assessed using minimum inhibitory concentration (MIC) against various clinical pathogens.
(§2) Isolates used in this study were either obtained from the American Type Culture Collection (ATCC), the Canadian National Intensive Care Unit (CAN-ICU) surveillance study (27) or the Canadian Ward Surveillance (CANWARD) study (28). Clinical isolates belonging to the CAN-ICU and CANWARD studies were recovered from patients suffering a presumed infectious disease entering or admitted in a participating medical center across Canada during the time of study. MDR P. aeruginosa strains in this study refer to those that are resistant to aminoglycosides, fluoroquinolones, cephalosporins, and carbapenems while XDR strains are those that are resistant to aminoglycosides, fluoroquinolones, cephalosporins, carbapenems, aztreonam and penicillin+β-lactamase inhibitor combination (39, 40).
(§3) Microbroth dilution susceptibility test following the Clinical and Laboratory Standards Institute (CLSI) guidelines (32) was performed to assess the in vitro antibacterial activity of SPRLPs. Overnight grown bacterial cultures were diluted in saline to achieve a 0.5 McFarland turbidity, followed by 1:50 dilution in Mueller-Hinton broth (MHB) for inoculation to a final concentration of 5×10^5 colony forming units/mL. The assay was done on a 96-well plate to which the agents of interest were 2-fold serially diluted in MHB and incubated with equal volumes of inoculum at 37° C. for 18 hours. MIC was determined as the lowest concentration to inhibit visible bacterial growth in form of turbidity, which was confirmed using EMax Plus microplate reader (Molecular Devices, USA) at a wavelength of 590 nm. The well containing MHB broth with or without bacterial cells was used as positive or negative control, respectively.

[3] = system: P. aeruginosa ATCC 27853
Experimental: as §1, §2, §3

[4] = system: methicillin-resistant S. epidermidis CAN-ICU 61589 (ceftazidime-resistant); settings: methicillin-resistant CAN-ICU 61589 (ceftazidime-resistant)
Experimental: as §1, §2, §3

[5] = system: P. aeruginosa CAN-ICU 62308 (gentamicin-resistant)
Experimental: as §1, §2, §3

[6] = system: E. faecium ATCC 27270
Experimental: as §1, §2, §3

[7] = system: K. pneumoniae ATCC 13883
Experimental: as §1, §2, §3

[8] = system: P. aeruginosa CANWARD-2011 96846 (gentamicin-, tobramycin-resistant)
Experimental: as §1, §2, §3

[9] = system: S. maltophilia CAN-ICU 62584
Experimental: as §1, §2, §3

[10] = system: S. aureus ATCC 29213
Experimental: as §1, §2, §3

[11] = system: methicillin-susceptible Staphylococcus epidermidis CANWARD-2008 81388; settings: methicillin-susceptible CANWARD-2008 81388
Experimental: as §1, §2, §3

[12] = system: P. aeruginosa wild-type PAO1
Experimental: as §1, §2, §3

[13] = system: methicillin-resistant S. aureus ATCC 33592
Experimental: as §1, §2, §3

[14] = system: A. baumannii CAN-ICU 63169
Experimental: as §1, §2, §3

[15] = system: E. coli ATCC 25922
Experimental: as §1, §2, §3

[16] = system: E. coli CAN-ICU 61714 (gentamicin-resistant)
Experimental: as §1, §2, §3

[17] = system: E. coli CANWARD-2011 97615 (gentamicin-, tobramycin-, ciprofloxacin-resistant) aac(3′)iia
Experimental: as §1, §2, §3

[18] = system: E. faecalis ATCC 29212
Experimental: as §1, §2, §3

N=C(N)NCCC[C@H](NC(=O)[C@@H]1CCCN1C(=O)CNC(=O)[C@@H]1CCCN1C(=O)[C@H](CCCNC(=N)N)NC(=O)[C@@H]1CCCN1C(=O)CC12CC3CC(CC(C3)C1)C2)C(=O)N1CCC[C@H]1C(N)=O [Ad-PGP, Adamantyl-CH2CO-PRPGPRP-NH2] ({Acetyl(1-adamantyl)}-PRPGPRP-NH2)
MHC (minimum concentration that resulted in 5% red blood cell hemolysis) [1]: >512 µg/mL
MIC [2]: >128 mg/L
MIC [3]: >128 mg/L
MIC [4]: >128 mg/L
MIC [5]: >128 mg/L
MIC [6]: >128 mg/L
MIC [7]: >128 mg/L
MIC [8]: >128 mg/L
MIC [9]: >128 mg/L
MIC [10]: >128 mg/L
MIC [11]: >128 mg/L
MIC [12]: >512 mg/L
MIC [13]: >128 mg/L
MIC [14]: >128 mg/L
MIC [15]: >128 mg/L
MIC [16]: >128 mg/L
MIC [17]: >128 mg/L
MIC [18]: >128 mg/L

CC(C)C[C@H](NC(=O)[C@@H]1CCCN1C(=O)[C@H](CCCNC(=N)N)NC(=O)[C@@H]1CCCN1C(=O)CC12CC3CC(CC(C3)C1)C2)C(=O)N1CCC[C@H]1C(=O)N[C@@H](CCCNC(=N)N)C(=O)N1CCC[C@H]1C(N)=O [Ad-PLP, Adamantyl-CH2CO-PRPLPRP-NH2] ({Acetyl(1-adamantyl)}-PRPLPRP-NH2)
MHC (minimum concentration that resulted in 5% red blood cell hemolysis) [1]: >512 µg/mL
MIC [2]: >128 mg/L
MIC [3]: >128 mg/L
MIC [4]: >128 mg/L
MIC [5]: >128 mg/L
MIC [6]: >128 mg/L
MIC [7]: >128 mg/L
MIC [8]: >128 mg/L
MIC [9]: >128 mg/L
MIC [10]: >128 mg/L
MIC [11]: >128 mg/L
MIC [12]: >512 mg/L
MIC [13]: >128 mg/L
MIC [14]: >128 mg/L
MIC [15]: >128 mg/L
MIC [16]: >128 mg/L
MIC [17]: >128 mg/L
MIC [18]: >128 mg/L

N=C(N)NCCC[C@H](NC(=O)[C@@H]1CCCN1C(=O)[C@H](Cc1c[nH]c2ccccc12)NC(=O)[C@@H]1CCCN1C(=O)[C@H](CCCNC(=N)N)NC(=O)[C@@H]1CCCN1C(=O)CC12CC3CC(CC(C3)C1)C2)C(=O)N1CCC[C@H]1C(N)=O [Ad-PWP, Adamantyl-CH2CO-PRPWPRP-NH2] ({Acetyl(1-adamantyl)}-PRPWPRP-NH2)
MHC (minimum concentration that resulted in 5% red blood cell hemolysis) [1]: >512 µg/mL
MIC [2]: >128 mg/L
MIC [3]: >128 mg/L
MIC [4]: >128 mg/L
MIC [5]: >128 mg/L
MIC [6]: >128 mg/L
MIC [7]: >128 mg/L
MIC [8]: >128 mg/L
MIC [9]: >128 mg/L
MIC [10]: >128 mg/L
MIC [11]: >128 mg/L
MIC [12]: >512 mg/L
MIC [13]: >128 mg/L
MIC [14]: >128 mg/L
MIC [15]: >128 mg/L
MIC [16]: >128 mg/L
MIC [17]: >128 mg/L
MIC [18]: >128 mg/L

CCCCCCCC(=O)N1CCC[C@H]1C(=O)N[C@@H](CCCNC(=N)N)C(=O)N1CCC[C@H]1C(=O)NCC(=O)N1CCC[C@H]1C(=O)N[C@@H](CCCNC(=N)N)C(=O)N1CCC[C@H]1C(N)=O [Compound C8-PGP, CH3(CH2)6CO-PRPGPRP-NH2] (Octanoyl-PRPGPRP-NH2)
MHC (minimum concentration that resulted in 5% red blood cell hemolysis) [1]: >512 µg/mL
MIC [2]: >128 mg/L
MIC [3]: >128 mg/L
MIC [4]: >128 mg/L
MIC [5]: >128 mg/L
MIC [6]: >128 mg/L
MIC [7]: >128 mg/L
MIC [8]: >128 mg/L
MIC [9]: >128 mg/L
MIC [10]: >128 mg/L
MIC [11]: >128 mg/L
MIC [12]: >512 mg/L
MIC [13]: >128 mg/L
MIC [14]: >128 mg/L
MIC [15]: >128 mg/L
MIC [16]: >128 mg/L
MIC [17]: >128 mg/L
MIC [18]: >128 mg/L

CCCCCCCC(=O)N1CCC[C@H]1C(=O)N[C@@H](CCCNC(=N)N)C(=O)N1CCC[C@H]1C(=O)N[C@@H](CC(C)C)C(=O)N1CCC[C@H]1C(=O)N[C@@H](CCCNC(=N)N)C(=O)N1CCC[C@H]1C(N)=O [Compound C8-PLP, CH3(CH2)6CO-PRPLPRP-NH2] (Octanoyl-PRPLPRP-NH2)
MHC (minimum concentration that resulted in 5% red blood cell hemolysis) [1]: >512 µg/mL
MIC [2]: >128 mg/L
MIC [3]: >128 mg/L
MIC [4]: >128 mg/L
MIC [5]: >128 mg/L
MIC [6]: >128 mg/L
MIC [7]: >128 mg/L
MIC [8]: >128 mg/L
MIC [9]: >128 mg/L
MIC [10]: >128 mg/L
MIC [11]: >128 mg/L
MIC [12]: >512 mg/L
MIC [13]: >128 mg/L
MIC [14]: >128 mg/L
MIC [15]: >128 mg/L
MIC [16]: >128 mg/L
MIC [17]: >128 mg/L
MIC [18]: >128 mg/L

CCCCCCCC(=O)N1CCC[C@H]1C(=O)N[C@@H](CCCNC(=N)N)C(=O)N1CCC[C@H]1C(=O)N[C@@H](Cc1c[nH]c2ccccc12)C(=O)N1CCC[C@H]1C(=O)N[C@@H](CCCNC(=N)N)C(=O)N1CCC[C@H]1C(N)=O [Compound C8-PWP, CH3(CH2)6CO-PRPWPRP-NH2] (Octanoyl-PRPWPRP-NH2)
MHC (minimum concentration that resulted in 5% red blood cell hemolysis) [1]: >512 µg/mL
MIC [2]: >128 mg/L
MIC [3]: >128 mg/L
MIC [4]: >128 mg/L
MIC [5]: >128 mg/L
MIC [6]: >128 mg/L
MIC [7]: >128 mg/L
MIC [8]: >128 mg/L
MIC [9]: >128 mg/L
MIC [10]: >128 mg/L
MIC [11]: >128 mg/L
MIC [12]: >512 mg/L
MIC [13]: >128 mg/L
MIC [14]: >128 mg/L
MIC [15]: >128 mg/L
MIC [16]: >128 mg/L
MIC [17]: >128 mg/L
MIC [18]: >128 mg/L
